Experimental data from ChEMBL document CHEMBL1201862, “PubChem BioAssay data set” (2004).
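96-well plates; 48 h exposure; 5 concentrations. Endpoints by linear interpolation between flanking doses. Not reached: highest tested concentration assigned. GI50 = concentration required for 50% inhibition of growth.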 Active and inactive are the calls of the source. No stated cut-off is given here; in the data, active = GI50 up to about 1.1 µM and inactive = higher.

Columns and labels:
Experiment in all cases: DTP human tumour cell line panel, 48 h
HOP-18 = tested on: HOP-18
DLD-1 = tested on: DLD-1
KM-20L2 = tested on: KM-20L2
DMS-273 = tested on: DMS-273
M19-MEL = tested on: M19-MEL
RXF 631 = tested on: RXF 631
LXFL 529 = tested on: LXFL 529
SNB-78 = tested on: SNB-78

Measured: GI50

CCOC(=O)C(C)OC(=O)c1ccc(C)cc1 (stereo not given)
inactive: HOP-18 > 100 µM | DLD-1 > 100 µM | KM-20L2 > 100 µM | DMS-273 > 100 µM | M19-MEL > 100 µM | RXF 631 > 100 µM | LXFL 529 > 100 µM | SNB-78 > 100 µM

Nc1nc(N)nc(-c2ccccc2NS(=O)(=O)c2ccc([N+](=O)[O-])cc2)n1
inactive: HOP-18 > 100 µM | DLD-1 59.6 µM | KM-20L2 > 100 µM | DMS-273 55.8 µM | M19-MEL 34.9 µM | SNB-78 > 74.1 µM

CC(=O)Oc1c(OC(C)=O)c(-c2ccc(O)c(O)c2)c(O)c(O)c1-c1ccc(O)cc1
inactive: HOP-18 > 100 µM | DLD-1 > 100 µM | DMS-273 > 100 µM | M19-MEL 24.4 µM

CCN(CC)CCCNC(=O)c1ccccc1Nc1c(Cl)cccc1Cl
inactive: DLD-1 11.6 µM | KM-20L2 2.56 µM | DMS-273 17.3 µM | M19-MEL 3.28 µM | LXFL 529 14.6 µM | SNB-78 15 µM

O=C(O)CC/C(=N\Nc1nsc2ccccc12)c1ccccc1
inactive: HOP-18 > 100 µM | KM-20L2 78.7 µM | DMS-273 24.7 µM | M19-MEL 72.3 µM | LXFL 529 42.5 µM | SNB-78 47.8 µM
